The results in this text go back to patent US20060020036A1, “Methods and compositions to promote bone homestasis” (priority 2004, published 2006).

Structures are written as SMILES. “Also recorded” adds a separate entry of the source.

Experiment [1] has as its system RUNX2 (DN-RUNX2) in MPCs infected with Ad-NR1H3. The experiment in a line: DN-RUNX2 assay (AP activity in MPCs). As to conditions: Ad-NR1H3 in the presence of T0901317, Ad-DN-RUNX2 vs Ad-luciferase, 6 days post infection. Format: cell-based, human. The method, then: MPCs are seeded at 1000 cells/well in a 384 well plate and infected the next day with adenoviruses encoding hCAR (MOI 250), Ad-BMP2 (MOIs 6000, 2000, 666) and one of Ad-DN-RUNX2 or Ad-luciferase (MOIs 2000 or 666). Alkaline phosphatase activity is read 6 days post infection.
MPCs are seeded at 1000 cells/well in a 384 well plate and are infected the next day with adenoviruses encoding hCAR (MOI 250), Ad-BMP2, Ad-ESRRG, Ad-NR5A2, Ad-NR1H3 (MOIs 6000, 2000, 666) and one of Ad-DN-RUNX2 or Ad-luciferase (MOI 1000 or MOIs 2000 and 666) (see FIG. 19 (C)). Alkaline phosphatase activity is read 6 days post infection and raw data are analysed.

Experiment [2] relates to osteogenic markers mRNA in MPCs infected with Ad-NR1H3. The experiment in a line: Osteogenic marker mRNA levels (rtRT-PCR) in MPCs infected with Ad-NR1H3 + T0901317. Format: cell-based, human. As to conditions: Ad-NR1H3 + T0901317 (1 μM). As for the experimental part: Osteogenic differentiation of MPCs into osteoblasts is accompanied by the up-regulation of osteogenic proteins. […] The MPCs that are used in this study are profiled for the up-regulation of a limited set of osteogenic markers by BMP2. Markers that show differential expression for BMP2 are subsequently tested against mRNA derived from Ad-NR5A2 infected cells or derived from Ad-NR1H3+T0901317 treated cells. 100,000 MPCs are seeded in each well of a 6 well plate in 2 ml MPC medium, containing 10% FCS. The next day, after incubation at 37° C., 10% CO2 in a humidified incubator, cells are co-infected with AdC15-hCAR (final MOI of 750) and Ad-NR5A2, Ad-NR1H3+T0901317 (1 μM) or Ad-BMP2 (positive control) or Ad-eGFP or Ad-luciferase as negative controls (final MOIs of 1250 and 2500). Cells are incubated at 37° C., 10% CO2 in a humidified incubator for a further six days unless cells are already harvested for RNA isolation. Virus is removed and replaced by 2 ml fresh OS medium (proprietary medium containing 10% FCS). Over the next 3 weeks, medium is refreshed 3 times per 2 weeks. Every other time, medium is refreshed half or completely. Monolayers are harvested at several time points (see FIG. 15), total RNA is harvested and quantified and rtRT-PCRs are run as follows: monolayers are washed with ice cold PBS and harvested by adding SV RNA Lysis Buffer. Total RNA is prepared using the SV Total RNA isolation System (Promega, Cat # Z3100). RNA concentration is measured with the Ribogreen RNA Quantification kit (Molecular Probes, Leiden, The Netherlands, Cat No. R-11490). cDNA synthesis is performed using 20 ng total RNA per reaction using the TaqMan Universal PCR Master Mix, No AmpErase UNG, kit (Applied Biosystems, Warrington, UK, Part number 4324018). For each reverse transcriptase (RT) reaction a minus-RT reaction (negative control: no enzyme included in the reaction) is performed. The real-time reverse transcriptase (rtRT)-PCR reaction is performed with gene specific primers on both cDNA and minus-RT samples, using the SYBR Green PCR Master Mix (Applied Biosystems, Warrington, UK, Part number 4309155). Primers are quality controlled by performing PCR reactions on human genomic DNA and on plasmids containing the cDNA encoded by the gene studied if available. If the quality is unsatisfactory, additional primers are designed or validated primer sets are purchased (ABI). For the normalization of the expression levels a RT-PCR reaction is performed on human β-actin using the Human β-actin kit (Applied Biosystems, Warrington, UK, Part number 4310881E). The following program is run on a real-time PCR apparatus (ABI PRISM 7000 Sequence Detection System): 10 min at 25° C., 30 min at 48° C., 5 min at 95° C.
Expression levels for osteogenic marker genes are first normalized for beta-actin levels. The resulting data for Ad-BMP2, Ad-NR5A2 and Ad-NR1H3+T0901317 (1 μM) samples are then compared to those of Ad-eGFP or Ad-luciferase negative control samples, harvested at the same time points, for cells infected at the same MOI.

[3] abbreviates: up-regulated if 4-fold higher than negative control, one or more time points.

Consider `O=S(=O)(c1ccccc1)N(CC(F)(F)F)c1ccc(C(O)(C(F)(F)F)C(F)(F)F)cc1` [T0901317, N-(2,2,2-trifluoroethyl)-N-[4-[2,2,2-trifluoro-1-hydroxy-1-(trifluoromethyl)ethyl]phenyl]-benzenesulfonamide], for which the “up-regulation of AP activity upon overexpression of DN-RUNX2” value in experiment [1] is on record as “overexpression of DN-RUNX2 significantly reduces the up-regulation of AP activity; also recorded: DN-RUNX2 interferes with induction of AP activity”. In experiment [2] (setting [3]), the “BAP mRNA expression” value is given as “up-regulated expression”, the “PTHR1 mRNA expression” value is “up-regulated expression”, the “RANKL mRNA expression” value was “up-regulated expression” and the “aromatase mRNA expression” value is listed as “up-regulated expression”. Also, the “osteopontin mRNA expression” value in experiment [2] (setting [3]) is reported as “up-regulated expression”. Besides, the “mRNA levels of osteogenic markers” value in experiment [2] (MPCs) is “up-regulate mRNA levels of osteogenic markers”.
